{
  "source": "patent US20250017907A1",
  "about": "“METHOD FOR PREVENTING AND/OR TREATING LIVER FIBROSIS BY USING 6-METHOXYBENZOXAZOLINONE AND COIX LACHRYMA-JOBI L. EXTRACT COMPRISING 6-METHOXYBENZOXAZOLINONE” (Taichung District Agricultural Research and Extension …, priority 2023, published 2025)",
  "key": {"[1]": {"system": "TGF-β1-activated HSC-T6 cells", "test": "Wound healing assay", "format": "cell-based, rat", "description": "The procedure of wound healing assay is as follows. HSC-T6 cells were seeded on the 6-well plates for 24 h, scraped monolayer cells with a 200 μL pipette tip and washed off non-adherent cells by PBS, changed serum-free medium for 24 h, then treated with TGF-β1 and CX for 0, 24, and 48 h."}, "[2]": {"system": "TGF-β1-activated HSC-T6 cells", "test": "Real-time PCR of inflammatory factors", "format": "cell-based, rat", "conditions": "HSC-T6, TGF-β1 10 ng/mL, 24 h", "text": "The procedure of real-time PCR analysis is as follows. Total RNA was extracted with the Trizol reagent (Ambion, USA) and then reverse-transcribed into cDNA with RevertAid First Strand cDNA Synthesis kit (Thermo Scientific, USA). The PCR amplification was accomplished with SYBR Green PCR Master Mix (Applied Biosystems, USA), and the mRNA expression of the gene was normalized to GAPDH. All primers were obtained from Genomics (Genomics, Taiwan). Rat primer sequences are used for real-time PCR of HSC-T6 cells, and mouse primer sequences are used for real-time PCR of C57BL/6J mice.\nThe procedure of cell cultures is as follows. HSC-T6 cell is an immortalized cell line isolated from transformed SV40 large T-antigen transformed primary stellate cells of male Sprague-Dawley rats. HSC-T6 cells were maintained in Dulbecco's Modified Eagle Medium (DMEM, Sigma-Aldrich, USA) containing 8% fetal bovine serum (FBS, HyClone, USA), 100 U/mL of penicillin, and 100 μg/mL of streptomycin (Gibco, USA).\nFor hepatic stellate cell (HSC) activation, cells were cultured for 24 h and then replaced with serum-free medium for 24 h, after that, treated with transforming growth factor beta 1 (TGF-β1) (10 ng/mL) in the presence or absence of CX (10-100 μM) or adlay leaf, root, and seed extracts (25 and 50 μg/mL) for 24 h, or 30 min for intracellular signal pathways."}, "[3]": {"system": "TAA-induced liver fibrotic C57BL/6J mice", "test": "Serum TGF-β1 ELISA", "format": "in vivo", "conditions": "CX groups (20 and 50 mg/kg oral, 6 weeks); vs TAA group", "description": "For tests of CX, mice were randomly divided into the following four groups (n=8, per group): (1) NT group, (2) TAA group (200 mg/kg), (3) CX group (CX20, 20 mg/kg), and (4) CX group (CX50, 50 mg/kg). NT group received pure saline, and other groups intraperitoneally injected with TAA dissolved into saline thrice a week. Moreover, NT group and TAA group also received 5% propylene glycol, while CX groups received CX dissolved into 5% propylene glycol (prepared in 0.9% saline) by oral gavage once per day.\nTo examine the effects of CX on liver fibrosis, this example established a TAA-induced liver fibrotic C57BL/6J mouse model. FIG. 6 is a schematic diagram of animal experiment design in 6-methoxybenzoxazolinone (6-MBOA) (CX) groups. For animal experiments, 6-week-old C57BL/6J mice were randomly divided into four groups including NT, TAA, CX20 (TAA+20 mg/kg CX), CX50 (TAA+50 mg/kg CX). (n=8 per group). […]\nThe procedure of TGF-β1 enzyme-linked immunosorbent assay (ELISA) is as follows. The level of TGF-β1 was detected in serum by using commercial mouse ELISA kits (Invitrogen, USA) and the working procedure was followed a standard sandwich ELISA protocol. […] After reacted with stop solution, immediately measured the color intensity at 450 nm by ELISA reader (TECAN, Switzerland)."}},
  "data": [
    {"molecule": "COc1ccc2[nH]c(=O)oc2c1", "note": "[CX, 6-methoxybenzoxazolinone]", "values": [
      {"measurement": "TGF-β1-induced wound closure of 24 h", "setting": "[1]; HSC-T6, CX at a dose of 100 μM", "value": "significantly reduced"},
      {"measurement": "TGF-β1-induced wound closure of 48 h", "setting": "[1]; HSC-T6, CX at a dose of 20-100 μM", "value": "reduced"},
      {"measurement": "TGF-β1-induced IL-6 mRNA level", "setting": "[2]; CX 10, 20, 50, 100 μM", "value": "dose-dependently decreased"},
      {"measurement": "TGF-β1-induced TNF-α mRNA level", "setting": "[2]; CX 10, 20, 50, 100 μM", "value": "dose-dependently decreased"},
      {"measurement": "IL-10 mRNA level", "setting": "[2]; CX at the highest dose (100 μM)", "value": "significantly increased"},
      {"measurement": "upregulation of TGF-β1 in serum caused by TAA (ELISA)", "setting": "[3]", "value": "significantly reduced"}
    ]}
  ]
}
